Measured values taken from US12077503B2, “Substituted cyclic amides and their use as herbicides” (FMC CORPORATION, priority 2015, dated 2024).

How the values were obtained:
Assay type in all cases: in vivo
[1] = tested on: Kochia (Kochia scoparia); assay: Test A preemergence
Excerpt: (§1) Seeds of plant species selected from barnyardgrass (Echinochloa crus-galli), Kochia (Kochia scoparia), ragweed (common ragweed, Ambrosia elatior), ryegrass, Italian (Italian ryegrass, Lolium multiflorum), crabgrass, large (Digitaria sanguinalis), giant foxtail (Setaria faberii), green foxtail (Setaria viridis), morningglory (Ipomoea spp.), pigweed (Amaranthus retroflexus), velvetleaf (Abutilon theophrasti), wheat (Triticum aestivum), and corn (Zea mays) were planted into a blend of loam soil and sand and treated preemergence with a directed soil spray using test chemicals formulated in anon-phytotoxic solvent mixture which included a surfactant.
(§2) At the same time, plants selected from these crop and weed species and also blackgrass (Alopecurus myosuroides), and Galium (catchweed bedstraw, Galium aparine) were planted in pots containing the same blend of loam soil and sand and treated with postemergence applications of test chemicals formulated in the same manner. Plants ranged in height from 2 to 10 cm and were in the one- to two-leaf stage for the postemergence treatment. Treated plants and untreated controls were maintained in a greenhouse for approximately 10 d, after which time all treated plants were compared to untreated controls and visually evaluated for injury. Plant response ratings, summarized in Table A, are based on a 0 to 100 scale where 0 is no effect and 100 is complete control. A dash (-) response means no test result.

[2] = tested on: barnyardgrass (Echinochloa crus-galli); assay: Test A preemergence
Excerpt: as §1, §2

[3] = tested on: giant foxtail (Setaria faberii); assay: Test A preemergence
Excerpt: as §1, §2

[4] = tested on: pigweed (Amaranthus retroflexus); assay: Test A preemergence
Excerpt: as §1, §2

[5] = tested on: ragweed (common ragweed, Ambrosia elatior); assay: Test A preemergence
Excerpt: as §1, §2

[6] = tested on: ryegrass, Italian (Italian ryegrass, Lolium multiflorum); assay: Test A preemergence
Excerpt: as §1, §2

[7] = tested on: Galium (catchweed bedstraw, Galium aparine); assay: Test A postemergence
Excerpt: as §1, §2

[8] = tested on: Kochia (Kochia scoparia); assay: Test A postemergence
Excerpt: as §1, §2

[9] = tested on: barnyardgrass (Echinochloa crus-galli); assay: Test A postemergence
Excerpt: as §1, §2

[10] = tested on: blackgrass (Alopecurus myosuroides); assay: Test A postemergence
Excerpt: as §1, §2

[11] = tested on: corn (Zea mays); assay: Test A postemergence
Excerpt: as §1, §2

[12] = tested on: giant foxtail (Setaria faberii); assay: Test A postemergence
Excerpt: as §1, §2

[13] = tested on: pigweed (Amaranthus retroflexus); assay: Test A postemergence
Excerpt: as §1, §2

[14] = tested on: ragweed (common ragweed, Ambrosia elatior); assay: Test A postemergence
Excerpt: as §1, §2

[15] = tested on: ryegrass, Italian (Italian ryegrass, Lolium multiflorum); assay: Test A postemergence
Excerpt: as §1, §2

[16] = tested on: wheat (Triticum aestivum); assay: Test A postemergence
Excerpt: as §1, §2

[17] = tested on: barnyardgrass (Echinochloa crus-galli); assay: Test B flooded paddy test; details: Flood, 250 g ai/ha; 0 to 100 scale where 0 is no effect and 100 is complete control; 13 to 15 d
Protocol: (§3) Plant species in the flooded paddy test selected from rice (Oryra sativa), sedge, umbrella (small-flower umbrella sedge, Cyperus difformis), ducksalad (Heteranthera limosa), and barnyardgrass (Echinochloa crus-galli) were grown to the 2-leaf stage for testing. At time of treatment, test pots were flooded to 3 cm above the soil surface, treated by application of test compounds directly to the paddy water, and then maintained at that water depth for the duration of the test. Treated plants and controls were maintained in a greenhouse for 13 to 15 d, after which time all species were compared to controls and visually evaluated. Plant response ratings, summarized in Table B, are based on a scale of 0 to 100 where 0 is no effect and 100 is complete control. A dash (-) response means no test result.

[18] = tested on: ducksalad (Heteranthera limosa); assay: Test B flooded paddy test; details: Flood, 250 g ai/ha; 0 to 100 scale where 0 is no effect and 100 is complete control; 13 to 15 d
Protocol: as §3

[19] = tested on: rice (Oryra sativa); assay: Test B flooded paddy test; details: Flood, 250 g ai/ha; 0 to 100 scale where 0 is no effect and 100 is complete control; 13 to 15 d
Protocol: as §3

[20] = tested on: sedge, umbrella (small-flower umbrella sedge, Cyperus difformis); assay: Test B flooded paddy test; details: Flood, 250 g ai/ha; 0 to 100 scale where 0 is no effect and 100 is complete control; 13 to 15 d
Protocol: as §3

[21] = 125 g ai/ha, preemergence, 0 to 100 scale (0 no effect, 100 complete control)
[22] = Preemergence, 500 g ai/ha, 0 is no effect, 100 is complete control
[23] = 500 g ai/ha, postemergence, 0 to 100 scale, 0 no effect, 100 complete control
[24] = Postemergence, 125 g ai/ha, visual injury, 0 to 100 scale (0 no effect, 100 complete control), approx. 10 d

`Cc1ccc(C2CNC(=O)C2C(=O)Nc2ccccc2F)cc1F` (racemic) [Compound 368] was tested, and the “Plant response rating, Kochia” value [1, 21] was 0, the “Kochia plant response rating (0 to 100 scale)” value [1, 22] was 30 and the “Plant response rating, Barnyardgrass” value [2, 21] was 90. For the same molecule, the “Barnyardgrass plant response rating (0 to 100 scale)” value [2, 22] was 90, the “Plant response rating, Foxtail, Giant” value [3, 21] was 90 and the “Foxtail, Giant plant response rating (0 to 100 scale)” value [3, 22] was 90. The “Plant response rating, Pigweed” value [4, 21] was 0, the “Pigweed plant response rating (0 to 100 scale)” value [4, 22] was 0 and the “Plant response rating, Ragweed” value [5, 21] was 30. The “Ragweed plant response rating (0 to 100 scale)” value [5, 22] was 60, the “Plant response rating, Ryegrass, Italian” value [6, 21] was 0 and the “Ryegrass, Italian plant response rating (0 to 100 scale)” value [6, 22] was 30. For the same molecule, the “Plant response rating, Galium” value [7, 23] was 50, the “Plant response rating, Galium” value [7, 24] was 30 and the “Plant response rating, Kochia” value [8, 23] was 0. The “Plant response rating, Kochia” value [8, 24] was 0, the “Plant response rating, Barnyardgrass” value [9, 23] was 90 and the “Plant response rating, Barnyardgrass” value [9, 24] was 90. For the same molecule, the “Plant response rating, Blackgrass” value [10, 23] was 60, the “Plant response rating, Blackgrass” value [10, 24] was 0 and the “Plant response rating, Corn” value [11, 23] was 20. The “Plant response rating, Corn” value [11, 24] was 0, the “Plant response rating, Foxtail, Giant” value [12, 23] was 80 and the “Plant response rating, Foxtail, Giant” value [12, 24] was 20. For the same molecule, the “Plant response rating, Pigweed” value [13, 23] was 0, the “Plant response rating, Pigweed” value [13, 24] was 0 and the “Plant response rating, Ragweed” value [14, 23] was 30. For the same molecule, the “Plant response rating, Ragweed” value [14, 24] was 0, the “Plant response rating, Ryegrass, Italian” value [15, 23] was 50 and the “Plant response rating, Ryegrass, Italian” value [15, 24] was 20. The “Plant response rating, Wheat” value [16, 23] was 30, the “Plant response rating, Wheat” value [16, 24] was 0 and the “Plant response rating, Barnyardgrass” value [17] was 55. For the same molecule, the “Plant response rating, Ducksalad” value [18] was 100, the “Plant response rating, Rice” value [19] was 15 and the “Plant response rating, Sedge, Umbrella” value [20] was 0.
